What was measured:
Type in all cases: cell-based
[1] = system: GLUT; experiment: glycolysis assay (oligomycin + Cell Titer-Glo ATP readout) in HT1080 cells; conditions: 10 μM oligomycin, one hour, glycolytically-derived ATP
Description: The combination of inhibitors of both oxidative phosphorylation and glycolysis synergistically suppress cellular ATP levels. Therefore, our assay utilizes the combination of our glucose uptake inhibitors with oligomycin, a well-characterized inhibitor of ATP synthase. Because oligomycin inhibits ATP derived from oxidative phosphorylation, any remaining ATP production is derived from glycolysis. By reading out cellular ATP levels using the Promega
Titer Glo kit, we can assess the extent of glycolysis inhibition by our glucose uptake inhibitors. Using this experimental set-up in HT1080 cancer cells, we determined the IC50 of glycolysis inhibition for the compounds.
(§1) Determination of glucose uptake/GLUT activity (glycolysis assay): HT1080 cells, DLD1 cells (WT and GLUT1−/−) and human CD4+ T cells were plated in 96-well plates. Cells were exposed to the combination of 10 μM Oligomycin (to block mitochondrial-derived ATP) and the glucose uptake inhibitors disclosed herein for one-hour, after which glycolytically-derived ATP was measured with the Cell Titer-Glo assay kit (Promega). Dose-response curves of the glucose uptake inhibitors disclosed herein were used to determine the IC50 for GLUT activity.

[2] = target: T1, GLUT1 (Homo sapiens, UniProt P11166); experiment: glycolysis assay in DLD1 WT cells (rely on GLUT1); conditions: DLD1-WT cells; 10 μM oligomycin, one hour
T1 construct: endogenous in cells; host or cells: DLD1 WT cancer cells
T1 sequence (P11166 1-492): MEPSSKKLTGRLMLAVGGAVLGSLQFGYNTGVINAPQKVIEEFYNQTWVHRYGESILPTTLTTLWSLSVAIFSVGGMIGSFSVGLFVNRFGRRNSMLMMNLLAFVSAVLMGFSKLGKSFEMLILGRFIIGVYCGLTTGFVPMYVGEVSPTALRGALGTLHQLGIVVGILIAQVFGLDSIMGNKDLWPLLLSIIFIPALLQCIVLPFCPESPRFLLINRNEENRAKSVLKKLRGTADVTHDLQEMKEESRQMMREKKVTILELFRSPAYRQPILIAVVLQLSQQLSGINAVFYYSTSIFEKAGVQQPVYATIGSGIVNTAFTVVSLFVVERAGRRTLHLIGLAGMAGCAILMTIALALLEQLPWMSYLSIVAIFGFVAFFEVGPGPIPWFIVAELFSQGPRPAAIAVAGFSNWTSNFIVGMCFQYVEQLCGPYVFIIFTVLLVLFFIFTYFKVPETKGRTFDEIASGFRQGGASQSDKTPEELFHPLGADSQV
Protocol: (§2) Cells were treated with GLUT inhibitors plus oligomycin and subsequently ATP levels were determined using Cell Titer Glo. […] FIG. 1B reports the IC50 of glycolysis inhibition for selected compounds.
(§3) Accordingly, we have investigated the use of inhibitors of GLUT transporters against activated pro-inflammatory immune cells, including but not limited to activated human CD4+ T cells. In order to understand what GLUT transporters are required to sustain glycolysis in activated T cells, we first utilized the syngeneic cancer cell lines DLD1 WT and DLD GLUT1−/− that rely on GLUT1 and GLUT3 expression, respectively, for glucose transport. Within this system, we have identified small molecules that simultaneously have the property of inhibiting both GLUT1 and GLUT3 mediated glucose transport. In addition, we have confirmed the GLUT1-selective nature of a published small molecule inhibitor of GLUT1 (Chem Med Chem. 2016 Oct. 19; 11(20):2261-2271).
as §1

[3] = target: T2, GLUT3 (Homo sapiens, UniProt P11169); experiment: glycolysis assay in DLD1 GLUT1−/− cells (rely on GLUT3); conditions: DLD1-KO (GLUT1−/−) cells; 10 μM oligomycin, one hour
T2 construct: endogenous in cells; host or cells: DLD1 GLUT1−/− (knock-out) cancer cells
T2 sequence (P11169 1-496): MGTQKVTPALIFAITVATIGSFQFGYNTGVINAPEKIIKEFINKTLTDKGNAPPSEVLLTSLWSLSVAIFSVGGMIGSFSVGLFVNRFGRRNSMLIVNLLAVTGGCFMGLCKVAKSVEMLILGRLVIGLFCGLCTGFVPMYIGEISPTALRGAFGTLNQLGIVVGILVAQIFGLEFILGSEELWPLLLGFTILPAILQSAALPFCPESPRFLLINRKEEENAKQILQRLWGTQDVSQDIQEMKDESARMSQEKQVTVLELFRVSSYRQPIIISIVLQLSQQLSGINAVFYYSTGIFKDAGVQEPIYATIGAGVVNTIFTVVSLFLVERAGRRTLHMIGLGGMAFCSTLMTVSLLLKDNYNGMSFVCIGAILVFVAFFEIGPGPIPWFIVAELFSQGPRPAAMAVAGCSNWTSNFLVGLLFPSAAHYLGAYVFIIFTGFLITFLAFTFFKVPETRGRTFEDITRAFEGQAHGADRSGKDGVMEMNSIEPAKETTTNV
Protocol: as §2, §3, §1

Compound	IC50 [1]	IC50 [2]	IC50 [3]
CCC(C)NC(=O)COc1cccc(-c2nc(Nc3ccc(-c4cn[nH]c4)cc3)c3cc(OC)ccc3n2)c1 (stereo not drawn) [Ex. 22, 2-(3-(4-((4-(1H-pyrazol-4-yl)phenyl)amino)-6-methoxyquinazolin-2-yl)phenoxy)-N-(sec-butyl)acetamide]	112 nM	105 nM	66.8 nM
COc1ccc2nc(-c3cccc(OCC(=O)NC(CF)CF)c3)nc(Nc3ccc(-c4cn[nH]c4)cc3)c2c1 [Ex. 23, 2-(3-(4-((4-(1H-pyrazol-4-yl)phenyl)amino)-6-methoxyquinazolin-2-yl)phenoxy)-N-(1,3-difluoropropan-2-yl)acetamide]	258 nM	463 nM	110 nM
CCOc1ccc2nc(-c3cccc(OCC(=O)NCC(F)(F)F)c3)nc(Nc3ccc(-c4cn[nH]c4)cc3)c2c1 [Ex. 24, 2-(3-(4-((4-(1H-pyrazol-4-yl)phenyl)amino)-6-ethoxyquinazolin-2-yl)phenoxy)-N-(2,2,2-trifluoroethyl)acetamide]	454 nM	801 nM	86 nM
COc1ccc2nc(-c3cccc(OCC(=O)NCC(F)(F)F)c3)nc(Nc3ccc(-c4cn[nH]c4)cc3)c2c1 [Ex. 25, 2-(3-(4-((4-(1H-pyrazol-4-yl)phenyl)amino)-6-methoxyquinazolin-2-yl)phenoxy)-N-(2,2,2-trifluoroethyl)acetamide]	433 nM	1070 nM	68.4 nM
CCOc1ccc2nc(-c3cccc(OCC(=O)NC(C)(C)C)c3)nc(Nc3ccc(-c4cc[nH]n4)cc3)c2c1 [Ex. 27, 2-(3-(4-((4-(1H-Pyrazol-3-yl)phenyl)amino)-6-ethoxyquinazolin-2-yl)phenoxy)-N-(tert-butyl)acetamide]	310 nM	252 nM	116 nM
CCOc1ccc2nc(-c3cccc(OCC(=O)NC(C)C)c3)nc(Nc3ccc(-c4cc[nH]n4)cc3)c2c1 [Ex. 28, 2-(3-(4-((4-(1H-Pyrazol-3-yl)phenyl)amino)-6-ethoxyquinazolin-2-yl)phenoxy)-N-isopropylacetamide]	545 nM	496 nM	105 nM
CC(C)(C)NC(=O)COc1cccc(-c2nc(Nc3ccc(-c4cn[nH]c4)cc3)c3cc(F)ccc3n2)c1 [Ex. 29, 2-(3-(4-((4-(1H-Pyrazol-4-yl)phenyl)amino)-6-fluoroquinazolin-2-yl)phenoxy)-N-(tert-butyl)acetamide]	123 nM	124 nM	142 nM
CC(C)(C)NC(=O)COc1cccc(-c2nc(Nc3ccc(-c4cn[nH]c4)cc3)c3ccc(F)cc3n2)c1 [Ex. 30, 2-(3-(4-((4-(1H-Pyrazol-4-yl)phenyl)amino)-7-fluoroquinazolin-2-yl)phenoxy)-N-(tert-butyl)acetamide]	425 nM	624 nM	195 nM
COCCOc1ccc2nc(-c3cccc(OCC(=O)NC(C)C)c3)nc(Nc3ccc(-c4cn[nH]c4)cc3)c2c1 [Ex. 31, 2-(3-(4-((4-(1H-Pyrazol-4-yl)phenyl)amino)-6-(2-methoxyethoxy)quinazolin-2-yl)phenoxy)-N-isopropylacetamide]	53.5 nM	62.1 nM	59.2 nM
CCCOc1ccc2nc(-c3cccc(OCC(=O)NC(C)C)c3)nc(Nc3ccc(-c4cn[nH]c4)cc3)c2c1 [Ex. 32, 2-(3-(4-((4-(1H-Pyrazol-4-yl)phenyl)amino)-6-propoxyquinazolin-2-yl)phenoxy)-N-isopropylacetamide]	188 nM	178 nM	305 nM
CC(C)NC(=O)COc1cccc(-c2nc(Nc3ccc(-c4cn[nH]c4)cc3)c3cc(F)ccc3n2)c1 [Ex. 33, 2-(3-(4-((4-(1H-pyrazol-4-yl)phenyl)amino)-6-fluoroquinazolin-2-yl)phenoxy)-N-isopropylacetamide]	424 nM	802 nM	183 nM
CC(C)NC(=O)COc1cccc(-c2nc(Nc3ccc(-c4cn[nH]c4)cc3)c3ccc(F)cc3n2)c1 [Ex. 34, 2-(3-(4-((4-(1H-Pyrazol-4-yl)phenyl)amino)-7-fluoroquinazolin-2-yl)phenoxy)-N-isopropylacetamide]	418 nM	797 nM	197 nM
CCOc1ccc2nc(-c3cccc(OCC(=O)N[C@@H](C)CC)c3)nc(Nc3ccc(-c4cn[nH]c4)cc3)c2c1 [Ex. 35, (S)-2-(3-(4-((4-(1H-Pyrazol-4-yl)phenyl)amino)-6-ethoxyquinazolin-2-yl)phenoxy)-N-(sec-butyl)acetamide]	134 nM	130 nM	94.2 nM
CCOc1ccc2nc(-c3cccc(OCC(=O)N[C@H](C)CC)c3)nc(Nc3ccc(-c4cn[nH]c4)cc3)c2c1 [Ex. 36, (R)-2-(3-(4-((4-(1H-Pyrazol-4-yl)phenyl)amino)-6-ethoxyquinazolin-2-yl)phenoxy)-N-(sec-butyl)acetamide]	137 nM	116 nM	130 nM
CCCOc1ccc2nc(-c3cccc(OCC(=O)NC(C)(C)C)c3)nc(Nc3ccc(-c4cn[nH]c4)cc3)c2c1 [Ex. 37, 2-(3-(4-((4-(1H-Pyrazol-4-yl)phenyl)amino)-6-propoxyquinazolin-2-yl)phenoxy)-N-(tert-butyl)acetamide]	128 nM	89.3 nM	158 nM
CC(C)(C)NC(=O)COc1cccc(-c2nc(Nc3ccc(-c4cn[nH]c4)cc3)c3cc(OCCF)ccc3n2)c1 [Ex. 38, 2-(3-(4-((4-(1H-Pyrazol-4-yl)phenyl)amino)-6-(2-fluoroethoxy)quinazolin-2-yl)phenoxy)-N-(tert-butyl)acetamide]	60.8 nM	65.7 nM	51.5 nM
COCCOc1ccc2nc(-c3cccc(OCC(=O)NC(C)(C)C)c3)nc(Nc3ccc(-c4cn[nH]c4)cc3)c2c1 [Ex. 39, 2-(3-(4-((4-(1H-Pyrazol-4-yl)phenyl)amino)-6-(2-methoxyethoxy)quinazolin-2-yl)phenoxy)-N-(tert-butyl)acetamide]	34.1 nM	40.6 nM	34.2 nM
CC(C)NC(=O)COc1cccc(-c2nc(Nc3ccc(-c4cn[nH]c4)cc3)c3cc(OCCF)ccc3n2)c1 [Ex. 40, 2-(3-(4-((4-(1H-Pyrazol-4-yl)phenyl)amino)-6-(2-fluoroethoxy)quinazolin-2-yl)phenoxy)-N-isopropylacetamide]	98 nM	160 nM	68.3 nM
CC(C)NC(=O)COc1cccc(-c2nc(Nc3ccc(-c4cn[nH]c4)cc3)c3cc(OC(C)C)ccc3n2)c1 [Ex. 41, 2-(3-(4-((4-(1H-pyrazol-4-yl)phenyl)amino)-6-isopropoxyquinazolin-2-yl)phenoxy)-N-isopropylacetamide]	107 nM	48.8 nM	191 nM
CCC(C)NC(=O)COc1cccc(-c2nc(Nc3ccc(-c4cn[nH]c4)cc3)c3cc(OCCOC)ccc3n2)c1 (stereo not drawn) [Ex. 42, 2-(3-(4-((4-(1H-pyrazol-4-yl)phenyl)amino)-6-(2-methoxyethoxy)quinazolin-2-yl)phenoxy)-N-(sec-butyl)acetamide]	31.2 nM	30.7 nM	41.6 nM

— patent US11071735B2, “Treatment of inflammatory conditions and autoimmune diseases with glucose uptake inhibitors” (Kadmon Corporation, LLC, priority 2017, dated 2021)
